pIC50: −log10 of the molar value.
Molecular target: T1, human HSL (Homo sapiens, UniProt Q05469)
T1 construct: generate a full length human HSL ORF with a 3′-His6 tag; made in house; host or cells: High 5 insect cells (baculovirus, pFast-BAC)
T1 sequence (Q05469 1-1076): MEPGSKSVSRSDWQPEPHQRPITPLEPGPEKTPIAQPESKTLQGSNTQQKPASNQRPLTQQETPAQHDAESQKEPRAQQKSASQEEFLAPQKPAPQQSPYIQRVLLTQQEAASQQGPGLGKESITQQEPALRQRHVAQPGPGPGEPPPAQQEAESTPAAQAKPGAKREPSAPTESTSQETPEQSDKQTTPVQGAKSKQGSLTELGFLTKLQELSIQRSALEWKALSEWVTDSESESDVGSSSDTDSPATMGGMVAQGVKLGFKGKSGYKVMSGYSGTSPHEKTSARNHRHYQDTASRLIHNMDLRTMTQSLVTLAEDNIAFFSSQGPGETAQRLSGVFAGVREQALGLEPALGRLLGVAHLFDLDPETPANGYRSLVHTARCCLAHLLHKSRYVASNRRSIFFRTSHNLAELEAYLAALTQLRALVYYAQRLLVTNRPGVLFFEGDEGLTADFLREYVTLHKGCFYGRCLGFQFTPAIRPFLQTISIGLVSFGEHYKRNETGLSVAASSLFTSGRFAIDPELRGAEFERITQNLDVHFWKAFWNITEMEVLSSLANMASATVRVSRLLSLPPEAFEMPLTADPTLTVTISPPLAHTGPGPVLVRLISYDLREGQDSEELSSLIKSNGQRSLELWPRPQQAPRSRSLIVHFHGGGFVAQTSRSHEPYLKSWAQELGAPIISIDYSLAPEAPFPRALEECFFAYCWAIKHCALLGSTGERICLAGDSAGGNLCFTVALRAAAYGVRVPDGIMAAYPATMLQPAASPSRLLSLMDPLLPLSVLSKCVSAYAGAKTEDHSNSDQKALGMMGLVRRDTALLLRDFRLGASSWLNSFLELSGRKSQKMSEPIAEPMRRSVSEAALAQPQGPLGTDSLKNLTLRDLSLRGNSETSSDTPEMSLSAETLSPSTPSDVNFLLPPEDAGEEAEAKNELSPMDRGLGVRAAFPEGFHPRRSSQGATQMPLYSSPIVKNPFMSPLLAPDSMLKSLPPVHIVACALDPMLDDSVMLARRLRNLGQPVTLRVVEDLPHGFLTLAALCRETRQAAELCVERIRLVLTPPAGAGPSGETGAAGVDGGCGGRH
Test: Human Hormone-Sensitive Lipase (HSL) enzyme inhibition assay (colorimetric, DMPT substrate)
Format: biochemical
Conditions: human full length HSL-His6, 2,3-dimercapto-1-propanol tributyrate substrate, 37° C. 20 minutes, absorbance at 405 nm; read-out: HSL hum IC50
Summary of the method: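 Full-length human HSL with C-terminal His6, expressed in baculovirus-infected High 5 cells and Ni-NTA purified, was added (15 ug/ml stock) to 1.5 mM DMPT in 100 mM MOPS pH 7.2, 0.2 mg/ml fatty acid-free BSA containing compound. After 20 min at 37 °C, DTNB with SDS/Triton X-100 was added; A405 read after 15 min at RT.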

pIC50	SMILES
8.00	CCC(CC)OC[C@]1(O)CC[C@]2(CCN(c3ccc(O[C@@H](C)C(F)(F)F)nc3)C2=O)CC1 [Example 328, (5α,8α)-8-(1-Ethyl-propoxymethyl)-8-hydroxy-2-[6-((S)-2,2,2-trifluoro-1-methyl-ethoxy)-pyridin-3-yl]-2-aza-spiro[4.5]decan-1-one]
6.77	COC[C@]1(O)CC[C@]2(CCN(c3ccc(OC(C)C)nc3)C2=O)CC1 [Example 329, (5α,8α)-8-Hydroxy-2-(6-isopropoxy-pyridin-3-yl)-8-methoxymethyl-2-aza-spiro[4.5]decan-1-one]
7.40	CCOC[C@]1(O)CC[C@]2(CCN(c3ccc(OC(C)C)nc3)C2=O)CC1 [Example 330, (5α,8α)-8-Ethoxymethyl-8-hydroxy-2-(6-isopropoxy-pyridin-3-yl)-2-aza-spiro[4.5]decan-1-one]
7.92	CCCS(=O)(=O)C[C@]1(O)CC[C@]2(CCN(c3ccc(C(C)(C)C)cc3)C2=O)CC1 [Example 331, (5α,8α)-2-(4-tert-Butyl-phenyl)-8-hydroxy-8-(propane-1-sulfonylmethyl)-2-aza-spiro[4.5]decan-1-one]
8.15	CC(C)CS(=O)(=O)C[C@]1(O)CC[C@]2(CCN(c3ccc(C(C)(C)C)cc3)C2=O)CC1 [Example 332, (5α,8α)-2-(4-tert-Butyl-phenyl)-8-hydroxy-8-(2-methyl-propane-1-sulfonylmethyl)-2-aza-spiro[4.5]decan-1-one]
8.10	CC(C)S(=O)(=O)C[C@]1(O)CC[C@]2(CCN(c3ccc(C(C)(C)C)cc3)C2=O)CC1 [Example 333, (5α,8α)-2-(4-tert-Butyl-phenyl)-8-hydroxy-8-(propane-2-sulfonylmethyl)-2-aza-spiro[4.5]decan-1-one]
8.10	CC(C)(C)c1ccc(N2CC[C@]3(CC[C@@](O)(CS(=O)(=O)C(C)(C)C)CC3)C2=O)cc1 [Example 334, (5α,8α)-2-(4-tert-Butyl-phenyl)-8-hydroxy-8-(2-methyl-propane-2-sulfonylmethyl)-2-aza-spiro[4.5]decan-1-one]
7.30	CCCS(=O)(=O)C[C@]1(O)CC[C@]2(CCN(c3ccc(OC(C)C)nc3)C2=O)CC1 [Example 335, (5α,8α)-8-Hydroxy-2-(6-isopropoxy-pyridin-3-yl)-8-(propane-1-sulfonylmethyl)-2-aza-spiro[4.5]decan-1-one]
6.68	O=C1N(c2ccc3c(c2)OC(F)(F)O3)CC[C@]12CC[C@@](O)(C(F)(F)F)CC2 [Example 336, (5α,8α)-2-(2,2-Difluoro-benzo[1,3]dioxol-5-yl)-8-hydroxy-8-trifluoromethyl-2-aza-spiro[4.5]decan-1-one]
7.10	CC[C@]1(O)CC[C@]2(CCN(c3ccc4c(c3)OC(F)(F)O4)C2=O)CC1 [Example 337, (5α,8α)-2-(2,2-Difluoro-benzo[1,3]dioxol-5-yl)-8-ethyl-8-hydroxy-2-aza-spiro[4.5]decan-1-one]
6.60	CC(=O)[C@]1(O)CC[C@]2(CCN(c3ccc(OCC(F)(F)F)cc3)C2=O)CC1 [Example 338, (5α,8α)-8-Acetyl-8-hydroxy-2-[4-(2,2,2-trifluoro-ethoxy)-phenyl]-2-aza-spiro[4.5]decan-1-one]
6.92	CC(C)(O)[C@]1(O)CC[C@]2(CCN(c3ccc(OCC(F)(F)F)cc3)C2=O)CC1 [Example 339, (5α,8α)-8-Hydroxy-8-(1-hydroxy-1-methyl-ethyl)-2-[4-(2,2,2-trifluoro-ethoxy)-phenyl]-2-aza-spiro[4.5]decan-1-one]
7.40	O=C1N(c2ccc(C3CC(F)(F)C3)cc2)CC[C@]12CC[C@@](O)(C(F)(F)F)CC2 [Example 340, (5α,8α)-2-[4-(3,3-Difluoro-cyclobutyl)-phenyl]-8-hydroxy-8-trifluoromethyl-2-aza-spiro[4.5]decan-1-one]
5.87	O=C1N(c2ccc(C3CC(F)(F)C3)cc2)CC[C@]12CC[C@](O)(C(F)(F)F)CC2 [Example 341, (5α,8β)-2-[4-(3,3-Difluoro-cyclobutyl)-phenyl]-8-hydroxy-8-trifluoromethyl-2-aza-spiro[4.5]decan-1-one]

Source: patent US8440710B2, “HSL inhibitors useful in the treatment of diabetes” (Hoffmann-La Roche Inc., priority 2009, dated 2013)
